Laboratory results published in patent US9771360B2, “Cyano-substituted imidazo[1,2-A]pyridinecarboxamides and their use” (Bayer Pharma Aktiengesellschaft, priority 2014, dated 2017).

Biological target: T1, recombinant guanylate cyclase reporter cell line (Rattus norvegicus, UniProt P19686+P20595)
T1 construct: expressed in transfected cells
T1 sequence (P20595 1-619): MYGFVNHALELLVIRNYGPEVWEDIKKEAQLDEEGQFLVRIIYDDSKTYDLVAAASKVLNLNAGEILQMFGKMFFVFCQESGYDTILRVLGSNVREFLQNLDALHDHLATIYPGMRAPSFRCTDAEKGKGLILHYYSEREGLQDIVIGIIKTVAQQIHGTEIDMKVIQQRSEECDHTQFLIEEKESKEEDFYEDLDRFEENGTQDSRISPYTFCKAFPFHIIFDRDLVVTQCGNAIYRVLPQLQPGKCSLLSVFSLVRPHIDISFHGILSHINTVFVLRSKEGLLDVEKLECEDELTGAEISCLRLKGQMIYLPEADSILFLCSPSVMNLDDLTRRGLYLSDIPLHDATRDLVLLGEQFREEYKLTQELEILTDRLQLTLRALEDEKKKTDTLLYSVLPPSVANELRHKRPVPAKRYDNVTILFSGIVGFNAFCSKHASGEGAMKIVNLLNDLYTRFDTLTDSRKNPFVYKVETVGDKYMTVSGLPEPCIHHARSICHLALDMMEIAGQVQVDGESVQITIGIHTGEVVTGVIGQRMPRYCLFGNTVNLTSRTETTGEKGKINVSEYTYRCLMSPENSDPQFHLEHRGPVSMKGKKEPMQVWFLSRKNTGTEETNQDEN
T1 sequence (P19686 1-690): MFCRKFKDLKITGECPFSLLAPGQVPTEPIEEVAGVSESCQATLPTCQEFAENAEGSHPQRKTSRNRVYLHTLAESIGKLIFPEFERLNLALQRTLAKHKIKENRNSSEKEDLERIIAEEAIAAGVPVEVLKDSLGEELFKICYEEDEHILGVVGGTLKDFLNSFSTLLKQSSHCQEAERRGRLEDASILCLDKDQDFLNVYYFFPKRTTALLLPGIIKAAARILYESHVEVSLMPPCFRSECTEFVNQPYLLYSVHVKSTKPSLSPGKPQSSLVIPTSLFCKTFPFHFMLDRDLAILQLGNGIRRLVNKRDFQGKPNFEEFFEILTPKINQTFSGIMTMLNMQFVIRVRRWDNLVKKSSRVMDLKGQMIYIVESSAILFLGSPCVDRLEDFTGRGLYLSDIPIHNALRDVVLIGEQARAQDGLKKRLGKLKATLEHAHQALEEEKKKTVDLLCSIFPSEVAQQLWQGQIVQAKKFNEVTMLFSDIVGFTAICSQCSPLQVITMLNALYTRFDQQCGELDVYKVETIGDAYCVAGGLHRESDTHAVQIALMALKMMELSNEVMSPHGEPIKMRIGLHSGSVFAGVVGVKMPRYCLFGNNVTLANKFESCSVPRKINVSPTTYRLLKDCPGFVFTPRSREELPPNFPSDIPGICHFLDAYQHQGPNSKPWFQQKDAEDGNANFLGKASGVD
Test: Effect on a recombinant guanylate cyclase reporter cell line (B-2)
Assay type: cell-based
Conditions: MEC = minimum effective concentration; in some cases mean values from individual determinations
Protocol: B-2. Effect on a Recombinant Guanylate Cyclase Reporter Cell Line
The cellular activity of the compounds according to the invention is determined using a recombinant guanylate cyclase reporter cell line, as described in F. Wunder et al., Anal. Biochem. 339, 104-112 (2005).
Representative MEC values (MEC=minimum effective concentration) for the compounds of the invention are shown in the table below (in some cases as mean values from individual determinations): […]

| MEC | Compound |
| --- | --- |
| 1 µM | Cc1cc(OCc2c(F)cncc2F)c2nc(C)c(C(=O)NC(C#N)c3ccc(Cl)cc3)n2c1 (racemic) [Example 30, rac-N-[(4-chlorophenyl)(cyano)methyl]-8-[(3,5-difluoropyridin-4-yl)methoxy]-2,6-dimethylimidazo[1,2-a]pyridine-3-carboxamide] |
| 10 µM | Cc1cc(OC(C)c2c(F)cccc2F)c2nc(C)c(C(=O)NC(C#N)c3ccc(Cl)cc3)n2c1 (stereo not drawn) [Example 26, N-[(4-chlorophenyl)(cyano)methyl]-8-[1-(2,6-difluorophenyl)ethoxy]-2,6-dimethylimidazo[1,2-a]pyridine-3-carboxamide] |
| 0.3 µM | COc1ccc(NC(=O)c2c(C)nc3c(OCc4c(F)cccc4F)cc(C)cn23)cc1C#N [Example 37, N-(3-cyano-4-methoxyphenyl)-8-[(2,6-difluorobenzyl)oxy]-2,6-dimethylimidazo[1,2-a]pyridine-3-carboxamide] |
| 0.3 µM | COCC(C)(C#N)NC(=O)c1c(C)nc2c(OCc3c(F)cccc3F)cc(C)cn12 (racemic) [Example 7, rac-N-(2-cyano-1-methoxypropan-2-yl)-8-[(2,6-difluorobenzyl)oxy]-2,6-dimethylimidazo[1,2-a]pyridine-3-carboxamide] |
| 1 µM | Cc1cc(OCc2c(F)cccc2F)c2nc(C)c(C(=O)NC(CN)CC#N)n2c1 (racemic) [Example 39, rac-N-(1-Amino-3-cyanopropan-2-yl)-8-[(2,6-difluorobenzyl)oxy]-2,6-dimethylimidazo[1,2-a]pyridine-3-carboxamide] |
| 0.1 µM | Cc1cc(OCc2c(F)cccc2F)c2nc(C)c(C(=O)NC(C)(C)C#N)n2c1 [Example 3, N-(2-cyanopropan-2-yl)-8-[(2,6-difluorobenzyl)oxy]-2,6-dimethylimidazo[1,2-a]pyridine-3-carboxamide] |
